From patent publication US12036226B2, “Methods of treating subjects having diabetes with chronic kidney disease” (Poxel SA, priority 2018, dated 2024)
Read-outs that look alike come from different tables or passages of the source.

Experiments:
[1] = system: acute renal failure (ARF) rat model; conditions: for plasma glucose: normal rats
Method: The creatinine level, correlated with the degree of the renal function failure, was tested for each rat 7 days after the first injection of gentamicin. […] The creatinine level was determined on the Monarch Chemistry Systems using the IL Test creatinine in rat plasma samples. This monochromatic analysis is based on the formation of a red colored complex between creatinine and picric acid under alkaline conditions.

Protein binding = type: in vitro ADME
[2] = system: Japanese type 2 diabetic subjects; assay: Phase 2b dose-ranging placebo-controlled 24-week study in Japanese type 2 diabetic subjects; type: in vivo, human; conditions: for FPG LSM difference vs baseline / FPG LSM difference vs placebo: 24 weeks, FAS; for responder rate (subjects reaching HbA1c≤7%): end of 24-week treatment (placebo 8.2%)
Method: A Dose-Ranging, Randomized, Double-Blind, Placebo-Controlled, Parallel-Group, Multi-Center Study of the Efficacy and Safety of 3 Doses of Imeglimin after 24 Weeks of Treatment in Japanese Type 2 Diabetic Subjects
In this study, a total of 299 subjects with T2DM received either imeglimin at one of the 3 doses (500, 1000 and 1500 mg bid) or placebo. The primary objective of this study was to assess the dose-response of imeglimin at 3 doses (500, 1000 and 1500 mg bid) compared to placebo in male and female subjects with T2DM after 24 weeks of treatment, using glycosylated hemoglobin (HbA1c) as the primary endpoint. Inclusion Criteria: subjects have an eGFR of ≥50 mL/min/1.73 m^2 at screening and >=45 at pre randomization visit. A total of 299 subjects were randomized 1:1:1:1 to one of the 4 study arms, with 268 subjects completing the study.
Percentage of responders was defined as the percentage of subjects who reached a value of HbA1c≤7% at the end of the 24-week double-blind treatment period. The analysis was performed using the FAS for subjects with an HbA1c value greater than 7.0% at baseline.
In a post-hoc analysis, efficacy and safety/tolerability profile was investigated in patients depending on their renal function (CKD 1=eGFR≥90 mL/min/1.73 m^2, CKD2=60≤eGFR<90 mL/min/1.73 m^2, CKD3A=45≤eGFR<60 mL/min/1.73 m^2). 299 patients were randomized 74% of the patients had CKD2, 14% had CKD1, and 12% CKD3A, respectively. The primary endpoint was met with a statistically significant dose-dependent placebo subtracted decrease in HbA1c at the 3 doses with the 2 top doses of 1,000 and 1,500 mg bid reaching an HbA1c decrease of −0.94% and −1.00% respectively (Table 5). […] There were no major differences in the incidence of AE, SAE or AE leading to treatment discontinuation.

[3] = CKD Stage 2 (eGFR = 60-90 mL/min/1.73 m^2), 500 mg BID
[4] = CKD Stage 2 (eGFR = 60-90 mL/min/1.73 m^2), 500 mg BID, N 56
[5] = CKD Stage 2 (eGFR = 60-90 mL/min/1.73 m^2), 1000 mg BID
[6] = CKD Stage 2 (eGFR = 60-90 mL/min/1.73 m^2), 1000 mg BID, N 57
[7] = CKD Stage 2 (eGFR = 60-90 mL/min/1.73 m^2), 1500 mg BID
[8] = CKD Stage 2 (eGFR = 60-90 mL/min/1.73 m^2), 1500 mg BID, N 51
[9] = CKD Stage 3a (eGFR < 60 mL/min/1.73 m^2), 500 mg BID
[10] = CKD Stage 3a (eGFR < 60 mL/min/1.73 m^2), 500 mg BID, N 10
[11] = CKD Stage 3a (eGFR < 60 mL/min/1.73 m^2), 1000 mg BID
[12] = CKD Stage 3a (eGFR < 60 mL/min/1.73 m^2), 1000 mg BID, N 7
[13] = CKD Stage 3a (eGFR < 60 mL/min/1.73 m^2), 1500 mg BID
[14] = CKD Stage 3a (eGFR < 60 mL/min/1.73 m^2), 1500 mg BID, N 8
[15] = Normal eGFR (eGFR > 90 mL/min/1.73 m^2), 500 mg BID
[16] = Normal eGFR (eGFR > 90 mL/min/1.73 m^2), 500 mg BID, N 9
[17] = Normal eGFR (eGFR > 90 mL/min/1.73 m^2), 1000 mg BID
[18] = Normal eGFR (eGFR > 90 mL/min/1.73 m^2), 1000 mg BID, N 9
[19] = Normal eGFR (eGFR > 90 mL/min/1.73 m^2), 1500 mg BID
[20] = Normal eGFR (eGFR > 90 mL/min/1.73 m^2), 1500 mg BID, N 14

C[C@H]1N=C(N(C)C)N=C(N)N1 [imeglimin, (6R)—N^2, N^2,6-trimethyl-3,6-dihydro-1,3,5-triazine-2,4-diamine]
plasma glucose ([1]; 180 minutes, imeglimin and metformin 100 mg/h/kg, phenformin 50 mg/h/kg i.v.): 5.4 ± 0.4 mmol/L
plasma glucose ([1]; i.v. perfusion 100 mg/h/kg, 60 minutes (basal 7.6±0.4)): 6.5 ± 0.4 mmol/L
effect on plasma [HCO3−] ([1]; rat, in vivo): significantly decreased plasma [HCO3^−]vs. basal period but not vs. control group
effect on plasma lactate ([1]; rat, in vivo): did not significantly increase plasma lactate
effect on plasma lactate level ([1]; rat, in vivo): did not change plasma lactate level
plasma H+ concentration / metabolic acidosis signs ([1]; rat, in vivo): Metabolic acidosis signs with imeglimin treatment were not observed
plasma accumulation ([1]; rat, in vivo): plasma accumulation of metformin and imeglimin was observed
severe hypoglycemia ([1]; rat, in vivo): severe hypoglycemia was not observed
decrease in plasma glucose ([1]; rats with mild or high ARF): significant and time-dependent
protein binding (Protein binding): < 8 % bound
TEAE leading to discontinuation ([2]; 500 mg (placebo 13.3%)): 2.7%
FPG LSM difference vs baseline ([2]; 500 mg bid): 8.0 mg/dL
FPG LSM difference vs placebo ([2]; 500 mg bid): -8.6 mg/dL
placebo-adjusted change in HbA1c ([2]; 500 mg bid, baseline HbA1c <8%): −0.47%
placebo-adjusted change in HbA1c ([2]; 500 mg bid, baseline HbA1c ≥8%): −0.58%
TEAE leading to discontinuation ([2]; 1000 mg (placebo 13.3%)): 6.8%
FPG LSM difference vs baseline ([2]; 1000 mg bid): -8.0 mg/dL
FPG LSM difference vs placebo ([2]; 1000 mg bid): -24.6 mg/dL
placebo-adjusted change in HbA1c ([2]; 1000 mg bid, baseline HbA1c <8%): −0.93%
placebo-adjusted change in HbA1c ([2]; 1000 mg bid, baseline HbA1c ≥8%): −0.90%
responder rate (subjects reaching HbA1c≤7%) ([2]; 1000 mg bid): 33.3%
TEAE leading to discontinuation ([2]; 1500 mg (placebo 13.3%)): 6.7%
subjects requiring a rescue therapy due to poor glycemic control ([2]; 1500 mg bid (placebo 10.7%)): no subjects requiring rescue therapy
FPG LSM difference vs baseline ([2]; 1500 mg bid): -8.0 mg/dL
FPG LSM difference vs placebo ([2]; 1500 mg bid): -24.6 mg/dL
placebo-adjusted change in HbA1c ([2]; 1500 mg bid, baseline HbA1c <8%): −0.82%
placebo-adjusted change in HbA1c ([2]; 1500 mg bid, baseline HbA1c ≥8%): −1.2%
responder rate (subjects reaching HbA1c≤7%) ([2]; 1500 mg bid): 32.9%
Decrease in FPG (placebo-adjusted) ([2]; 2 top doses of 1000 and 1500 mg bid): 1.37 mmol/L
SAE or AE leading to discontinuation ([2]; CKD3a subgroup, post-hoc analysis): No SAE or AE leading to discontinuation were observed
FPG LSM Difference vs. Placebo, Week 24 [2, 3]: -14.2 mg/dL
HbA1c LSM Difference vs. Placebo (SEM), Week 24 [2, 3]: −0.60%
Change in FPG from baseline, Week 24 LS Mean [2, 4]: 5.8 mg/dL
Change in HbA1c from baseline, Week 24 LS Mean (SEM) [2, 4]: −0.08 (0.109) %
HbA1c LSM Difference vs. Placebo (SEM), Week 24 ([2]; CKD Stage 2 (eGFR = 60-90 mL/min/1.73 m^2), 500 mg BID, listed as Imeglimin): −0.60 (0.154) %
FPG LSM Difference vs. Placebo, Week 24 [2, 5]: -26.5 mg/dL
HbA1c LSM Difference vs. Placebo (SEM), Week 24 [2, 5]: −1.03%
Change in FPG from baseline, Week 24 LS Mean [2, 6]: -6.5 mg/dL
Change in HbA1c from baseline, Week 24 LS Mean (SEM) [2, 6]: −0.51 (0.110) %
HbA1c LSM Difference vs. Placebo (SEM), Week 24 ([2]; CKD Stage 2 (eGFR = 60-90 mL/min/1.73 m^2), 1000 mg BID, listed as Imeglimin): −1.03 (0.155) %
FPG LSM Difference vs. Placebo, Week 24 [2, 7]: -33.0 mg/dL
HbA1c LSM Difference vs. Placebo (SEM), Week 24 [2, 7]: −1.11%
Change in FPG from baseline, Week 24 LS Mean [2, 8]: -12.9 mg/dL
Change in HbA1c from baseline, Week 24 LS Mean (SEM) [2, 8]: −0.58 (0.117) %
HbA1c LSM Difference vs. Placebo (SEM), Week 24 ([2]; CKD Stage 2 (eGFR = 60-90 mL/min/1.73 m^2), 1500 mg BID, listed as Imeglimin): −1.11 (0.160) %
FPG LSM Difference vs. Placebo, Week 24 [2, 9]: -6.7 mg/dL
HbA1c LSM Difference vs. Placebo (SEM), Week 24 [2, 9]: −0.54%
Change in FPG from baseline, Week 24 LS Mean [2, 10]: 1.7 mg/dL
Change in HbA1c from baseline, Week 24 LS Mean (SEM) [2, 10]: −0.32 (0.240) %
HbA1c LSM Difference vs. Placebo (SEM), Week 24 ([2]; CKD Stage 3a (eGFR < 60 mL/min/1.73 m^2), 500 mg BID, listed as Imeglimin): −0.54 (0.336) %
FPG LSM Difference vs. Placebo, Week 24 [2, 11]: -11.2 mg/dL
HbA1c LSM Difference vs. Placebo (SEM), Week 24 [2, 11]: −0.44%
Change in FPG from baseline, Week 24 LS Mean [2, 12]: -2.8 mg/dL
Change in HbA1c from baseline, Week 24 LS Mean (SEM) [2, 12]: −0.22 (0.282) %
HbA1c LSM Difference vs. Placebo (SEM), Week 24 ([2]; CKD Stage 3a (eGFR < 60 mL/min/1.73 m^2), 1000 mg BID, listed as Imeglimin): −0.44 (0.368) %
FPG LSM Difference vs. Placebo, Week 24 [2, 13]: -20.6 mg/dL
HbA1c LSM Difference vs. Placebo (SEM), Week 24 [2, 13]: −1.07%
Change in FPG from baseline, Week 24 LS Mean [2, 14]: -12.2 mg/dL
Change in HbA1c from baseline, Week 24 LS Mean (SEM) [2, 14]: −0.86 (0.265) %
HbA1c LSM Difference vs. Placebo (SEM), Week 24 ([2]; CKD Stage 3a (eGFR < 60 mL/min/1.73 m^2), 1500 mg BID, listed as Imeglimin): −1.07 (0.353) %
incidence of subjects presenting with Treatment Emergent (TE) AE ([2]; Imeglimin 1000 mg): 62.2%
incidence of subjects presenting with any adverse event (AE) ([2]; Imeglimin 1000 mg): 73%
incidence of subjects presenting with Treatment Emergent (TE) AE ([2]; Imeglimin 1500 mg): 73.3%
incidence of subjects presenting with any adverse event (AE) ([2]; Imeglimin 1500 mg): 77.3%
FPG LSM Difference vs. Placebo, Week 24 [2, 15]: 14.5 mg/dL
HbA1c LSM Difference vs. Placebo (SEM), Week 24 [2, 15]: −0.01 (0.290) %
Change in FPG from baseline, Week 24 LS Mean [2, 16]: 15.9 mg/dL
Change in HbA1c from baseline, Week 24 LS Mean (SEM) [2, 16]: 0.04 (0.221) %
FPG LSM Difference vs. Placebo, Week 24 [2, 17]: -28.1 mg/dL
HbA1c LSM Difference vs. Placebo (SEM), Week 24 [2, 17]: −0.85 (0.283) %
Change in FPG from baseline, Week 24 LS Mean [2, 18]: -26.6 mg/dL
Change in HbA1c from baseline, Week 24 LS Mean (SEM) [2, 18]: −0.8 (0.213) %
FPG LSM Difference vs. Placebo, Week 24 [2, 19]: 5.1 mg/dL
HbA1c LSM Difference vs. Placebo (SEM), Week 24 [2, 19]: −0.47 (0.260) %
Change in FPG from baseline, Week 24 LS Mean [2, 20]: 6.6 mg/dL
Change in HbA1c from baseline, Week 24 LS Mean (SEM) [2, 20]: −0.42 (0.175) %
incidence of TEAE considered as related to the study drug ([2]; imeglimin 500 mg (placebo 8%)): 5.3%
incidence of TEAE from the gastrointestinal disorder SOC ([2]; imeglimin 500 mg (placebo 14.7%)): 14.7%
serious TEAEs ([2]; imeglimin 500 mg bid): none
incidence of TEAE considered as related to the study drug ([2]; imeglimin 1000 mg (placebo 8%)): 5.4%
incidence of TEAE from the gastrointestinal disorder SOC ([2]; imeglimin 1000 mg (placebo 14.7%)): 18.9%
serious TEAEs ([2]; imeglimin 1000 mg bid): 5.4%
incidence of TEAE considered as related to the study drug ([2]; imeglimin 1500 mg (placebo 8%)): 24%
incidence of TEAE from the gastrointestinal disorder SOC ([2]; imeglimin 1500 mg (placebo 14.7%)): 32%
serious TEAEs ([2]; imeglimin 1500 mg bid): 1.3%
